Laboratory results: PubChem BioAssay AID330 (DTP/NCI, 2004)
“And” between values parts separate entries of the source, which are not always exact repeats. Identical values can stand only once. Toxic doses and inconclusive results are not listed.

Tested on: P388 leukemia ip, CD2F1 mice, survival T/C
Assay: NCI In Vivo Anticancer Drug Screen. Data for tumor model P388 Leukemia (intraperitoneal) in CD2F1 (CDF1) mice
Conditions: endpoint: median survival time, higher = longer survival
Procedure, shortened: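 Mice carrying the transplanted tumor received test compound or vehicle. Survival was recorded in each group, and the value is the treated-group measurement divided by that of the vehicle-treated control group.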

[1] = dose: 50.0 mg/kg/injection, schedule: Q01DX009 (ip), vehicle: Klucel (hydroxypropylcellulose) (HPC)
[2] = dose: 100.0 mg/kg/injection, schedule: Q01DX009 (ip), vehicle: Klucel (hydroxypropylcellulose) (HPC)
[3] = dose: 200.0 mg/kg/injection, schedule: Q01DX009 (ip), vehicle: Klucel (hydroxypropylcellulose) (HPC)
[4] = dose: 12.5 mg/kg/injection, schedule: Q01DX009 (ip), vehicle: saline
[5] = dose: 6.25 mg/kg/injection, schedule: Q01DX009 (ip), vehicle: Klucel (hydroxypropylcellulose) (HPC)
[6] = dose: 12.5 mg/kg/injection, schedule: Q01DX009 (ip), vehicle: Klucel (hydroxypropylcellulose) (HPC)
[7] = dose: 100.0 mg/kg/injection, schedule: Q04DX003 (ip), vehicle: saline with Tween-80
[8] = dose: 50.0 mg/kg/injection, schedule: Q01DX009 (ip), vehicle: saline with Tween-80
[9] = dose: 100.0 mg/kg/injection, schedule: Q01DX009 (ip), vehicle: saline with Tween-80
[10] = dose: 200.0 mg/kg/injection, schedule: Q01DX009 (ip), vehicle: saline with Tween-80
[11] = dose: 60.0 mg/kg/injection, schedule: Q01DX005 (ip), vehicle: Klucel (hydroxypropylcellulose) (HPC)
[12] = dose: 120.0 mg/kg/injection, schedule: Q01DX005 (ip), vehicle: Klucel (hydroxypropylcellulose) (HPC)
[13] = dose: 50.0 mg/kg/injection, schedule: Q01DX005 (ip), vehicle: saline with Tween-80
[14] = dose: 100.0 mg/kg/injection, schedule: Q01DX005 (ip), vehicle: saline with Tween-80
[15] = dose: 200.0 mg/kg/injection, schedule: Q01DX005 (ip), vehicle: saline with Tween-80
[16] = dose: 50.0 mg/kg/injection, schedule: Q01DX005 (ip), vehicle: Klucel (hydroxypropylcellulose) (HPC)
[17] = dose: 100.0 mg/kg/injection, schedule: Q01DX005 (ip), vehicle: Klucel (hydroxypropylcellulose) (HPC)
[18] = dose: 200.0 mg/kg/injection, schedule: Q01DX005 (ip), vehicle: Klucel (hydroxypropylcellulose) (HPC)
[19] = dose: 25.0 mg/kg/injection, schedule: Q01DX009 (ip), vehicle: Klucel (hydroxypropylcellulose) (HPC)

Structure (SMILES): CCC1CC2CN(CCc3c([nH]c4ccccc34)C(C(=O)OC)(c3cc4c(cc3OC)N(C)C3C(O)(C(=O)OC)C(OC(C)=O)C5(CC)CCCN6CCC43C65)C2)C1 (stereo not drawn)
- T/C (dose: 1.0 mg/kg/injection, schedule: Q01DX001 (ip), vehicle: water): 124 % of control
- T/C (dose: 2.0 mg/kg/injection, schedule: Q01DX001 (ip), vehicle: water): 122 % of control
- T/C (dose: 16.0 mg/kg/injection, schedule: Q01DX001 (ip), vehicle: water): 153 % of control and 154 % of control
- T/C (dose: 32.0 mg/kg/injection, schedule: Q01DX001 (ip), vehicle: water): 163 % of control

Structure (SMILES): COC(=O)c1ccc(SCCC(=O)CSc2ccc(C(=O)OC)cc2)cc1
- T/C [1]: 98 % of control
- T/C [2]: 94 % of control
- T/C [3]: 94 % of control

Structure (SMILES): Cc1ccc(C)n1-c1ccc(OCC(N)=O)cc1
- T/C (dose: 60.0 mg/kg/injection, schedule: Q01DX005 (ip), vehicle: saline with Tween-80): 104 % of control
- T/C (dose: 120.0 mg/kg/injection, schedule: Q01DX005 (ip), vehicle: saline with Tween-80): 97 % of control
- T/C (dose: 240.0 mg/kg/injection, schedule: Q01DX005 (ip), vehicle: saline with Tween-80): 90 % of control

Structure (SMILES): NC(=S)N/N=C\c1nccc2ccccc12
- T/C (dose: 6.25 mg/kg/injection, schedule: Q01DX009 (ip), vehicle: saline): 90 % of control
- T/C [4]: 99 % of control
- T/C (dose: 50.0 mg/kg/injection, schedule: Q01DX009 (ip), vehicle: suspension in saline): 94 % of control

Structure (SMILES): C[N+](C)(C)CCCOC1=Nc2ccccc2O/C1=C/c1ccccc1
- T/C (dose: 3.12 mg/kg/injection, schedule: Q01DX009 (ip), vehicle: Klucel (hydroxypropylcellulose) (HPC)): 96 % of control
- T/C [5]: 92 % of control
- T/C [6]: 98 % of control and 104 % of control

Structure (SMILES): CCN1CCC(=O)C1
- T/C (dose: 50.0 mg/kg/injection, schedule: Q04DX003 (ip), vehicle: saline with Tween-80): 104 % of control
- T/C [7]: 105 % of control
- T/C (dose: 200.0 mg/kg/injection, schedule: Q04DX003 (ip), vehicle: saline with Tween-80): 105 % of control

Structure (SMILES): CC(=O)Nn1cnc2c(SCc3ccccc3)ncnc21
- T/C [1]: 100 % of control
- T/C [8]: 100 % of control
- T/C [2]: 100 % of control
- T/C [9]: 95 % of control
- T/C [7]: 95 % of control
- T/C [3]: 100 % of control
- T/C [10]: 122 % of control

Structure (SMILES): CC(C)(C)CC(C)(C)c1ccc(OCc2ccc(F)cc2)cc1
- T/C [8]: 99 % of control
- T/C [9]: 95 % of control
- T/C [10]: 98 % of control

Structure (SMILES): COc1cccc2sc(-n3c(C)nc4ccccc4c3=O)nc12
- T/C [11]: 95 % of control
- T/C [12]: 87 % of control
- T/C (dose: 240.0 mg/kg/injection, schedule: Q01DX005 (ip), vehicle: Klucel (hydroxypropylcellulose) (HPC)): 87 % of control

Structure (SMILES): CC(=O)C1(C)CCOC1=O (stereo not drawn)
- T/C [13]: 100 % of control
- T/C [14]: 100 % of control
- T/C [15]: 109 % of control

Structure (SMILES): CC1(Br)CN(C(=S)Nc2ccccc2)C1=O (stereo not drawn)
- T/C [13]: 108 % of control
- T/C [14]: 105 % of control
- T/C [15]: 104 % of control

Structure (SMILES): CCC[CH2][Sn]1([CH2]CCC)[O]OC2(CCCCC2)[O]1
- T/C (dose: 1.25 mg/kg/injection, schedule: Q01DX009 (ip), vehicle: saline with Tween-80): 113 % of control
- T/C (dose: 2.5 mg/kg/injection, schedule: Q01DX009 (ip), vehicle: saline with Tween-80): 109 % of control

Structure (SMILES): CCCCCCC(=O)/C=C/c1cc(Cl)cc(Cl)c1
- T/C [13]: 95 % of control
- T/C [14]: 91 % of control
- T/C [15]: 92 % of control

Structure (SMILES): CC(SC(C)C(=O)O)C(=O)O (stereo not drawn)
- T/C (dose: 100.0 mg/kg/injection, schedule: Q04DX002 (ip), vehicle: saline): 97 % of control
- T/C (dose: 200.0 mg/kg/injection, schedule: Q04DX002 (ip), vehicle: saline): 109 % of control

Structure (SMILES): O=C(O)c1ccccc1SSc1ccccc1C(=O)O
- T/C [1]: 96 % of control
- T/C [2]: 102 % of control

Structure (SMILES): COC(C(=O)N/C(N)=N/O)c1c(Cl)cccc1Cl (stereo not drawn)
- T/C [16]: 98 % of control
- T/C [17]: 109 % of control

Structure (SMILES): CCC(=O)NC(N)=NC#N
- T/C (dose: 60.0 mg/kg/injection, schedule: Q01DX005 (ip), vehicle: saline): 99 % of control
- T/C (dose: 120.0 mg/kg/injection, schedule: Q01DX005 (ip), vehicle: saline): 101 % of control
- T/C (dose: 240.0 mg/kg/injection, schedule: Q01DX005 (ip), vehicle: saline): 98 % of control

Structure (SMILES): C[n+]1c(-c2cccc(OCCOCCOc3cccc(-c4c5cc(N)ccc5c5ccc(N)cc5[n+]4C)c3)c2)c2cc(N)ccc2c2ccc(N)cc21
- T/C (dose: 0.19 mg/kg/injection, schedule: Q01DX009 (ip), vehicle: water): 114 % of control
- T/C (dose: 0.39 mg/kg/injection, schedule: Q01DX009 (ip), vehicle: water): 114 % of control
- T/C (dose: 1.56 mg/kg/injection, schedule: Q01DX009 (ip), vehicle: water): 170 % of control
- T/C (dose: 3.13 mg/kg/injection, schedule: Q01DX009 (ip), vehicle: water): 172 % of control
- T/C (dose: 6.25 mg/kg/injection, schedule: Q01DX009 (ip), vehicle: water): 102 % of control

Structure (SMILES): COc1ccc(N=C(N=C(NC(=O)c2ccccc2)c2ccccc2)c2ccccc2)cc1
- T/C [8]: 104 % of control and 95 % of control
- T/C [9]: 103 % of control and 92 % of control
- T/C [10]: 100 % of control

Structure (SMILES): COc1ccc(C(=O)N2CC(OC(C)=O)=CC2=O)cc1
- T/C [1]: 107 % of control
- T/C [2]: 110 % of control
- T/C [3]: 106 % of control

Structure (SMILES): COC(=O)c1nc(N)nc(C(=O)OC)c1C(=O)c1ccccc1
- T/C [11]: 100 % of control
- T/C [12]: 93 % of control

Structure (SMILES): CCOC(=O)c1cc(Cl)nc2ccc3ccccc3c12
- T/C [13]: 95 % of control
- T/C [14]: 98 % of control
- T/C [15]: 100 % of control

Structure (SMILES): CC1OC(OC2C(Oc3cc(O)c4c(c3)O[C@H](c3ccc(O)cc3)CC4=O)OC(CO)C(O)C2O)C(O)C(O)C1O (stereo partly drawn)
- T/C [16]: 97 % of control
- T/C [17]: 97 % of control
- T/C [18]: 101 % of control

Structure (SMILES): CC(C)CC(N)C(=O)NC(Cc1cc2ccccc2[nH]1)C(=O)O (stereo not drawn)
- T/C [8]: 101 % of control
- T/C [9]: 107 % of control
- T/C [10]: 104 % of control

Structure (SMILES): C=Cc1nc(N)nc(-c2ccc(C)cc2)n1
- T/C [16]: 110 % of control
- T/C [17]: 111 % of control
- T/C [18]: 118 % of control

Structure (SMILES): CC(C)(C)OC(=O)NC(Cc1ccccc1)C(=O)O (stereo not drawn)
- T/C [5]: 101 % of control and 105 % of control
- T/C [6]: 107 % of control
- T/C [19]: 100 % of control and 88 % of control
- T/C [1]: 111 % of control and 88 % of control
- T/C [2]: 110 % of control and 97 % of control
- T/C [3]: 107 % of control and 97 % of control

Structure (SMILES): Nc1ccccc1Sc1cc(Cl)nnc1Cl
- T/C [8]: 93 % of control
- T/C [9]: 95 % of control
- T/C [10]: 99 % of control

Structure (SMILES): O=c1nc2[nH]c3c4cccc5cccc(c3nc2c(=O)[nH]1)c54
- T/C (dose: 12.5 mg/kg/injection, schedule: Q01DX005 (ip), vehicle: Klucel (hydroxypropylcellulose) (HPC)): 101 % of control and 108 % of control
- T/C (dose: 25.0 mg/kg/injection, schedule: Q01DX005 (ip), vehicle: Klucel (hydroxypropylcellulose) (HPC)): 101 % of control and 98 % of control
- T/C [16]: 106 % of control and 110 % of control (2×)
- T/C [17]: 108 % of control and 113 % of control and 124 % of control

Structure (SMILES): NCCNCC[OH2+].NCCNCC[OH2+].O=[N+]([O-])[O-].[Ni+2]
- T/C [4]: 93 % of control
- T/C (dose: 25.0 mg/kg/injection, schedule: Q01DX009 (ip), vehicle: saline): 102 % of control

Structure (SMILES): CC(C)=CC[P+](C)(c1ccccc1)c1ccccc1
- T/C (dose: 1.56 mg/kg/injection, schedule: Q04DX003 (ip), vehicle: saline): 101 % of control
- T/C (dose: 3.13 mg/kg/injection, schedule: Q04DX003 (ip), vehicle: saline): 100 % of control
- T/C (dose: 6.25 mg/kg/injection, schedule: Q04DX003 (ip), vehicle: saline): 89 % of control

Structure (SMILES): CCCCCCCCCCCCCCCCCC(=O)CC(=O)C(F)(F)F (tested in a mixture with another compound)
- T/C [8]: 91 % of control
- T/C [9]: 92 % of control

Structure (SMILES): NC(=O)NC(=O)CCl
- T/C [19]: 105 % of control and 94 % of control
- T/C [1]: 103 % of control and 122 % of control and 94 % of control

Structure (SMILES): CC1=NNC(=O)C1
- T/C [1]: 86 % of control
- T/C [2]: 102 % of control
- T/C [3]: 94 % of control
- T/C (dose: 400.0 mg/kg/injection, schedule: Q01DX009 (ip), vehicle: Klucel (hydroxypropylcellulose) (HPC)): 106 % of control
